pIC50: −log10 of the molar value. “Also recorded” adds a separate entry of the source. Values belong to the molecule of their own block, whether it stands above or below them.
Tests used:
c-MYC in ALCL cell lines = assay: c-MYC mRNA levels, real-time PCR; type: cell-based, human; conditions: 8 and 24 hours of treatment
Protocol: (§1) RNA was extracted using the RNA easy kit (Qiagen AG, Hombrechtikon, Switzerland). The concentration of total RNA was determined spectrophotometrically at 260 nm using a NanoDrop spectrometer (NanoDrop Technologies, Wilmington, Del., USA). One microgram of total RNA was reverse-transcribed using the Superscript First-Strand Synthesis System for real-time PCR kit (Invitrogen, Karlsruhe, Germany) according to the manufacturer's instructions. PCR amplification was performed using Fast SYBR Green Master Mix on a StepOnePlus real-time PCR System (Applied Biosystems, Foster City, Calif., USA). Primer sets (Table 2) were designed using the Primer3 software package (Rozen, S., Skaletsky, H. Primer3 on the WWW for general users and for biologist programmers. In: Misener, S., Krawetz, S. A., Eds. Methods in Molecular Biology, Vol. 132: Bioinformatics Methods and Protocols. Totowa, N.J., USA: Humana Press Inc., 2000, pp. 365-386). All samples were analyzed in triplicate. The relative quantity of the specific mRNA for each sample was calculated based on mean cycle threshold (Ct) values using the delta-delta Ct with a correction for experimental variations by normalization to the housekeeping gene GAPDH.
FIGS. 25A-25E illustrate c-MYC levels in ALCL cell lines after 8 hours of treatment with Formula 2. FIG. 26 illustrates c-MYC levels in ALCL cell lines after 24 hours of treatment with Formula 2.

[1] = tested on: c-MYC mRNA in DLBCL cell lines; assay: c-MYC mRNA levels, real-time PCR; type: cell-based, human
Protocol: as §1

MM cell lines [2] = assay: % Annexin V positive cells; type: cell-based, human; conditions: doses at IC50, 24 hours
Protocol: FIG. 18 illustrates the % Annexin V positive cells obtained after doses of Formula 2 at IC50 and 24 hours.

MM cell lines [3] = assay: Cell death, propidium iodide flow cytometry; type: cell-based, human
Protocol: (§2) Cell death was evaluated as follows. Cells were treated with DMSO or different doses of Formula 2 for 72 hours, harvested and washed once in PBS and then stained with propidium iodide (PI 1 μg/ml, Sigma) in PBS and analyzed using a FACScan flow cytometer (Becton Dickinson, Mountain View, Calif., USA). The analysis of the percentage of cell death was performed using CellQuest Pro software (Becton Dickinson).
(§3) The activity of Formula 2 was also evaluated in MM cell lines. […] All the BRD factors were expressed (FIG. 14).

ALCL cell lines = assay: MTT proliferation assay; type: cell-based, human; conditions: eight ALCL cell lines
Protocol: (§4) The activity of Formula 2 was evaluated in four mantle cell lymphoma (MCL), ten diffuse large B-cell lymphoma (DLBCL) established human cell lines, a set of multiple myeloma (MM) cell lines, three splenic marginal zone lymphoma (SMZL) cell lines and eight anaplastic large T-cell lymphoma (ALCL) cell lines. Cells were exposed to increasing doses of the compound for 72 hours.
(§5) The proliferation assay was performed using the following procedure. Cells were seeded into 96-well plates at the density of 104 per well. Formula 2 (Oncoethix SA, Lausanne, Switzerland) was dissolved in DMSO as a stock solution of 10 mM and divided in aliquots stored at −80° C. For each experiment, an aliquot of the stock solution was thawed and used within 2 to 3 days. Formula 2 was serially diluted in tissue culture media, added to cells (in five replicates) and incubated for 72 hours at 37° C. Control cells were treated with equal amounts of DMSO. The 3-(4,5-dimethylthiazol-2-yl)-2,5-diphenyltetrazolium bromide (MTT) (Sigma, Buchs, Switzerland) was prepared as a stock of 5 mg/mL in phosphate-buffered saline (PBS) and filter-sterilized. […] Cells were then lysed with 25% sodium dodecylsulfate (SDS) lysis buffer and absorbance was read at 570 nm on a Beckman Coulter-AD340 instrument. […]
The activity of Formula 2 was also evaluated in ALCL cell lines using the procedures described in Example 1. […]

DLBCL cell lines [4] = assay: Cell cycle analysis, flow cytometry; type: cell-based, human; conditions: five DLBCL cell lines, 24 h
Protocol: (§6) Cell cycle analysis was performed using the following procedure. Cells were treated with DMSO or different doses of Formula 2 for 24 hours, harvested and washed once in PBS and then fixed in 80% ethanol at 4° C. for at least one hour. Cells were stained with propidium iodide (PI 50 μg/ml, Sigma) in PBS containing RNAse-A (75 kU/ml, Sigma) and analyzed for DNA content using a FACScan flow cytometer (Becton Dickinson). Cell cycle analysis was performed using the ModFit LT software package (Verity Software House, Inc., Topsham, Me., USA).
Not having observed the induction of massive cell death despite the important effect on cell viability, the effect of Formula 2 on the cell cycle was investigated (FIG. 6). […] FIG. 7 illustrates representative flow cytometry profiles of untreated control cells and SU-DHL-6 cells treated for 24 hours with 0.2 in μM of Formula 2.

[5] = tested on: NFκB target genes in DLBCL cell lines; assay: NFκB target gene expression; type: cell-based, human; conditions: two DLBCL cell lines
Protocol: as §1
BRD4 co-activates transcriptional activation of NF-B via specific binding to acetylated ReIA. […]

MM cell lines [6] = assay: Cell cycle analysis, flow cytometry; type: cell-based, human; conditions: two of the three MM cell lines
Protocol: as §6, §3

MCL cell lines = assay: MTT proliferation assay, 72 h; type: cell-based, human; conditions: three MCL cell lines
Protocol: as §4
(§7) The proliferation assay was performed using the following procedure. Cells were seeded into 96-well plates at the density of 104 per well. Formula 2 (Oncoethix SA, Lausanne, Switzerland) was dissolved in DMSO as a stock solution of 10 mM and divided in aliquots stored at −80° C. For each experiment, an aliquot of the stock solution was thawed and used within 2 to 3 days. Formula 2 was serially diluted in tissue culture media, added to cells (in five replicates) and incubated for 72 hours at 37° C. Control cells were treated with equal amounts of DMSO. The 3-(4,5-dimethylthiazol-2-yl)-2,5-diphenyltetrazolium bromide (MTT) (Sigma, Buchs, Switzerland) was prepared as a stock of 5 mg/mL in phosphate-buffered saline (PBS) and filter-sterilized. An amount of MTT solution equal to 0.5 mg/mL was then added to each well and incubated in the dark at 37° C. for 4 hours. Cells were then lysed with 25% sodium dodecylsulfate (SDS) lysis buffer and absorbance was read at 570 nm on a Beckman Coulter-AD340 instrument. Three independent experiments were run for each cell line. The doses corresponding to the IC50 were estimated by fitting a sigmoidal model through the dose response curve using the R statistical package (R: A Language and Environment for Statistical Computing, R Foundation for Statistical Computing, Vienna, Austria).

VAL = assay: MTT proliferation assay, 72 h; type: cell-based, human
Protocol: as §4, §7

MM cell lines [7] = assay: MTT proliferation assay, 72 h; type: cell-based, human; conditions: all MM cell lines
Protocol: as §4, §7

DLBCL cell lines [8] = assay: MTT proliferation assay, 72 h; type: cell-based, human; conditions: for pIC50: Homo sapiens
Protocol: as §4, §7

DLBCL cell lines [9] = assay: Cell death, propidium iodide flow cytometry; type: cell-based, human; conditions: 24 and 72 hours, 0.1-15 μM; SU-DHL-2 and DoHH2
Protocol: as §2, with “[…],” for “Cells were treated with DMSO or different doses of Formula 2 for 72 hours,”

[10] = tested on: MYC mRNA in MM cell lines; assay: MYC mRNA levels, real-time PCR; type: cell-based, human; conditions: RPMI8226 and MM1S cell lines, 24 hours
Protocol: as §1

SMZL cell lines = assay: MTT proliferation assay; type: cell-based, human; conditions: three SMZL cell lines
Protocol: as §4, §5
The activity of Formula 2 was also evaluated in SMZL cell lines using the procedures described in Example 1. […]

SU-DHL-5 = assay: MTT proliferation assay, 72 h; type: cell-based; conditions: Homo sapiens, SU-DHL-5 (DLBCL), read-out: estimated IC50
Protocol: as §4, §7

MM1S = assay: MTT proliferation assay, 72 h; type: cell-based; conditions: Homo sapiens, MM1.S, MM1S (MM), read-out: estimated IC50
Protocol: as §4, §7

Karpass 422 = assay: MTT proliferation assay, 72 h; type: cell-based; conditions: Homo sapiens, Karpass 422 (DLBCL), read-out: estimated IC50
Protocol: as §4, §7

SU-DHL-6 = assay: MTT proliferation assay, 72 h; type: cell-based; conditions: Homo sapiens, SU-DHL-6 (DLBCL), read-out: estimated IC50
Protocol: as §4, §7

DoHH2 = assay: MTT proliferation assay, 72 h; type: cell-based; conditions: Homo sapiens, DOHH-2, DoHH2 (DLBCL), read-out: estimated IC50
Protocol: as §4, §7

RPMI8226 = assay: MTT proliferation assay, 72 h; type: cell-based; conditions: Homo sapiens, RPMI-8226, RPMI8226 (MM), read-out: estimated IC50
Protocol: as §4, §7

U266 = assay: MTT proliferation assay, 72 h; type: cell-based; conditions: Homo sapiens, U-266, U266 (MM), read-out: estimated IC50
Protocol: as §4, §7

OCI-Ly7 = assay: MTT proliferation assay, 72 h; type: cell-based; conditions: Homo sapiens, OCI-Ly7 (DLBCL), read-out: estimated IC50
Protocol: as §4, §7

Granta-519 = assay: MTT proliferation assay, 72 h; type: cell-based; conditions: Homo sapiens, Granta-519 (MCL), read-out: estimated IC50
Protocol: as §4, §7

SU-DHL-4 = assay: MTT proliferation assay, 72 h; type: cell-based; conditions: Homo sapiens, SU-DHL-4 (DLBCL), read-out: estimated IC50
Protocol: as §4, §7

SU-DHL-2 = assay: MTT proliferation assay, 72 h; type: cell-based; conditions: Homo sapiens, SU-DHL-2 (DLBCL), read-out: estimated IC50
Protocol: as §4, §7

SU-DHL-7 = assay: MTT proliferation assay, 72 h; type: cell-based; conditions: Homo sapiens, SU-DHL-7 (DLBCL), read-out: estimated IC50
Protocol: as §4, §7

MAVER-1 = assay: MTT proliferation assay, 72 h; type: cell-based; conditions: Homo sapiens, Maver1, MAVER-1 (MCL), read-out: estimated IC50
Protocol: as §4, §7

JeKo-1 = assay: MTT proliferation assay, 72 h; type: cell-based; conditions: Homo sapiens, JeKo-1 (MCL), read-out: estimated IC50
Protocol: as §4, §7

Rec-1 = assay: MTT proliferation assay, 72 h; type: cell-based; conditions: Homo sapiens, Rec1, Rec-1 (MCL), read-out: estimated IC50
Protocol: as §4, §7

U-2932 = assay: MTT proliferation assay, 72 h; type: cell-based; conditions: Homo sapiens, U2932, U-2932 (DLBCL), read-out: estimated IC50
Protocol: as §4, §7

[11] = tested on: MYC mRNA in MM cell lines; conditions: reported; cited from earlier work

pIC50 (SU-DHL-5): 6.72
pIC50 (MM1S): 7.23
pIC50 (Karpass 422): 6.56
pIC50 (SU-DHL-6): 6.96
pIC50 (RPMI8226): 6.15
pIC50 (U266): 6.35
pIC50 (OCI-Ly7): 5.86
pIC50 (SU-DHL-4): 6.22
pIC50 (SU-DHL-2): 7.16
pIC50 (SU-DHL-7): 6.88
Structure (SMILES): Cc1sc2c(c1C)C(c1ccc(Cl)cc1)=N[C@@H](CC(=O)Nc1ccc(O)cc1)c1nnc(C)n1-2 [Formula 2, (S)-2-[4-(4-chlorophenyl)-2,3,9-trimethyl-6H-thieno[3,2-f][1,2,4]triazolo-[4,3-a][1,4]diazepin-6-yl]-N-(4-hydroxyphenyl)acetamide]
c-MYC levels (c-MYC in ALCL cell lines): down-regulation of c-MYC in a dose-dependent manner
c-MYC mRNA levels ([1]; six DLBCL cell lines, 24 hours of treatment): down-regulated in five of the six cell lines
c-MYC levels ([1]; three DLBCL cell lines, 1 hour of treatment): down-regulation of c-MYC in two of three DLBCL cell lines
cytostatic versus cytotoxic effect (% Annexin V positive cells) (MM cell lines [2]): cytostatic effect
cell death (MM cell lines [3]): did not show an important increase of cell death
cell viability (ALCL cell lines): dose-dependent decrease in cell viability
effect on the cell cycle (DLBCL cell lines [4]): induced a G1-arrest in a dose-dependent manner
NFκB target genes expression [5]: partial down-regulation of NFκB target genes
cell cycle analysis, S-phase (MM cell lines [6]): significant reduction of S-phase
pIC50 (MCL cell lines; Homo sapiens): 5.57 to 5.92
cell viability (MCL cell lines): dose-dependent decrease in cell viability
pIC50 (VAL; Homo sapiens, VAL (DLBCL), MTT, 72 h, read-out: estimated IC50): < 4.90
reduction in cell proliferation (VAL; VAL, doses of up to 10 μM): over 40%
pIC50 (MM cell lines [7]; Homo sapiens): 6.15 to 7.22
cell viability (MM cell lines [7]): reduction in cell viability in all the cell lines
pIC50 (DLBCL cell lines [8]; seven very sensitive DLBCL cell lines): > 6.52
pIC50 (DLBCL cell lines [8]; two DLBCL cell lines): 5.85 to 6.22
cell viability (DLBCL cell lines [8]; all the DLBCL cell lines): dose-dependent decrease in cell viability
cell death (DLBCL cell lines [9]): induces cell death only in a small percentage of the cell
MYC mRNA levels [10]: significant reduction of MYC mRNA levels in a dose-dependent manner; also recorded: down-regulation of c-MYC in a dose-dependent manner
cell viability (SMZL cell lines): dose-dependent decrease in cell viability
pIC50 (DoHH2): 7.05
pIC50 (Granta-519): < 4.82
pIC50 (MAVER-1): 5.91
pIC50 (JeKo-1): 5.55
pIC50 (Rec-1): 5.91
pIC50 (U-2932): 6.59

Structure (SMILES): Cc1sc2c(c1C)C(c1ccc(Cl)cc1)=N[C@@H](CC(=O)OC(C)(C)C)c1nnc(C)n1-2 [JQ1]
MYC levels [11]: down-regulation of MYC

— US20140018353A1, “METHOD OF TREATING B-CELL MALIGNANT CANCERS AND T-CELL MALIGNANT CANCERS USING THIENOTRIAZOLODIAZEPINE COMPOUNDS” (Oncoethix SA, priority 2012, published 2014)
